# Test results published in patent publication US11655235B2, “Pyrrolidine and piperidine compounds” (YUHAN CORPORATION, priority 2019, dated 2023).
# Read-outs that look alike come from different tables or passages of the source.
# Tests used:
# Assay type in all cases: biochemical
# Recombinant human FAP [1] = biological target: T1, Recombinant human FAP (Homo sapiens, UniProt Q12884); assay: FAP inhibition, fluorogenic substrate Z-Gly-Pro-AMC
# T1 construct: purchased R&D systems
# T1 sequence (Q12884 1-760): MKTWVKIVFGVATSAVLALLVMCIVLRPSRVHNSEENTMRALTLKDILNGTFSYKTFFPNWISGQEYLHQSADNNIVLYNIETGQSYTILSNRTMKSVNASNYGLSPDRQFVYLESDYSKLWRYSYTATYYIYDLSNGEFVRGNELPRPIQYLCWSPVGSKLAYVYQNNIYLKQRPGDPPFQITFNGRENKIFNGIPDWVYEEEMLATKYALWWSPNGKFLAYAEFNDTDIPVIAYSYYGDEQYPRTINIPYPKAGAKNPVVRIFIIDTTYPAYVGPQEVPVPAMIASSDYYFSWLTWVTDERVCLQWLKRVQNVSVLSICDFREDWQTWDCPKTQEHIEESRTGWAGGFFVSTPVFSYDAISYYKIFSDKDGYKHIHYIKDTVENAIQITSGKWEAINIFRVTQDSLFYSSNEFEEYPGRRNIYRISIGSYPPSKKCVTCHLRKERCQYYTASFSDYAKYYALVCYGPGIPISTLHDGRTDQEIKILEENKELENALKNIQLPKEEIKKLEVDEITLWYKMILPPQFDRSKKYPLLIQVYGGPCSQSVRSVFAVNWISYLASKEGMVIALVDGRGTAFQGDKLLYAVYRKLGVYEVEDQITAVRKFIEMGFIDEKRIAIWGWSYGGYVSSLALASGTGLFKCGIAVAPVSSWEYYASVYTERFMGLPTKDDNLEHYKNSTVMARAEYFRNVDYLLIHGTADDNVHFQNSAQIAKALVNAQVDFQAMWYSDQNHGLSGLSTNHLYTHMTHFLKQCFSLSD
# Summary of the method: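 Eight-point compound dilutions (≤0.1% DMSO) were incubated at 25° C with 10 ng recombinant human FAP in Tris pH 7.5/1 M NaCl/BSA buffer and Z-Gly-Pro-AMC. Inhibition was taken as % drop in fluorescence rate (380/460 nm) against uninhibited control; IC50 came from a four-parameter logistic fit.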
# recombinant human DPP7 = biological target: T2, recombinant human DPP7 (Homo sapiens, UniProt Q9UHL4); assay: DPP7 inhibition, fluorogenic substrate Lys-Pro-AMC
# T2 construct: purchased R&D Systems
# Procedure: (§1) The compounds according to the present technology were evaluated in terms of the inhibitory effect on the activity of dipeptidyl peptidases including FAP by using a substrate producing fluorescent substances upon enzymatic decomposition. The test was conducted at 25° C. to get a final reaction volume of 100 μL in a 96 black well plate. […] Briefly, the test compounds were dissolved in dimethyl sulfoxide (DMSO) at a concentration of 20 mM and then subjected to serial dilution, thereby creating an 8 point curve. As for the control group, a 6 point curve created by serial dilution of Talabostat in the same buffer solution was used. Fluorescence intensity was measured using a microplate reader (Flexstation3, Molecular Devices) under the wavelength condition exciting at 380 nm and reading the emission at 460 nm. The inhibitory effect of the test compounds was measured as a decrease (%) in the signal rate as compared to the control group without any inhibitor. Data was fixed to a logistic model with four variables and IC50 value was calculated using GraphPad Prism program. As for recombinant human DPP4 (R&D Systems), 25 mM tris (pH 8.0) buffer as a buffer solution and H-Gly-Pro-AMC (Bachem) as a substrate were used. As for recombinant human DPP7 (R&D Systems), 25 mM MES (pH 6.0) buffer as a buffer solution and Lys-Pro-AMC (Bachem) as a substrate were used. As for recombinant human DPP8 (PBS Bioscience), as a buffer solution, a 10 mM tris (pH 7.4) buffer comprising 10 mM of magnesium chloride and 0.05% of Tween 20, and Z-Ala-Pro-AMC (BPS Bioscience) as a substrate were used. As for recombinant human DPP9 (R&D Systems), a 25 mM tris (pH 8.0) buffer as a buffer solution and H-Gly-Pro-AMC (Bachem) as a substrate were used. As for recombinant human PREP (R&D System), as a buffer solution, a 25 mM tris (pH 7.5) buffer comprising 250 mM sodium chloride and 2.5 mM DTT (Dithiolthreitol), and Z-Gly-Pro-AMC (Bachem) as a substrate were used. The evaluation was made by using 10 ng of DPP4, PDD7, and PREP, 20 ng of DPP8, and 50 ng of DPP9 based on the final reaction. In the evaluation of DPP4, the test compounds were subjected to serial dilution in a buffer under the condition containing up to 0.1% of DMSO. In the evaluation of DPP7, DPP8, DPP9, and PREP, the test compounds were subjected to serial dilution in each buffer under the condition containing up to 0.5% of DMSO.
# DPP4 = DPP4 (Homo sapiens, UniProt P27487); assay: DPP4 inhibition, fluorogenic substrate H-Gly-Pro-AMC; parameters: purchased R&D Systems
# recombinant human DPP9 = biological target: T3, recombinant human DPP9 (Homo sapiens, UniProt Q86TI2); assay: DPP9 inhibition, fluorogenic substrate H-Gly-Pro-AMC; conditions: at 1 μM
# T3 construct: purchased R&D Systems
# Procedure: as §1
# Recombinant human FAP [2] = biological target: T1, Recombinant human FAP; assay: FAP FRET assay, FGF21-sequence FRET peptide substrate; conditions: FRET peptide with human FGF21 sequence, 6 μM, 37° C.
# Procedure: The compounds according to the present technology were evaluated in terms of the inhibitory effect on the activity of dipeptidyl peptidases including FAP by using a substrate producing fluorescent substances upon enzymatic decomposition. The test was conducted at 25° C. to get a final reaction volume of 100 μL in a 96 black well plate. […] Briefly, the test compounds were dissolved in dimethyl sulfoxide (DMSO) at a concentration of 20 mM and then subjected to serial dilution, thereby creating an 8 point curve. As for the control group, a 6 point curve created by serial dilution of Talabostat in the same buffer solution was used. Fluorescence intensity was measured using a microplate reader (Flexstation3, Molecular Devices) under the wavelength condition exciting at 380 nm and reading the emission at 460 nm. The inhibitory effect of the test compounds was measured as a decrease (%) in the signal rate as compared to the control group without any inhibitor. Data was fixed to a logistic model with four variables and IC50 value was calculated using GraphPad Prism program. For the FAP FRET assay, recombinant human FAP (R&D systems) was diluted with 50 mM HEPES (pH 7.2) buffer comprising 150 mM of sodium chloride, 0.1 mg/ml of bovine serum albumin (BSA) and 1 mM EDTA to be 10 ng per final reaction. The test compounds were subjected to serial dilution in a buffer under the condition containing up to 0.1% of DMSO. FRET peptides containing human FGF21 sequence ([…]) conjugated with HyLite Fluor 488 and dark quencher QXL 520 (Anaspec) was used as a substrate. By dissolving in DMSO and then diluting in the same buffer, the substrate was added to be 6 μM per final reaction. All reactions of FRET assay was conducted at 37° C.
# [3] = 25° C., Z-Gly-Pro-AMC substrate
# [4] = 25° C., H-Gly-Pro-AMC substrate
# [5] = recombinant human FAP, substrate Z-Gly-Pro-AMC
# Chain of DPP4 (P27487 whole entry): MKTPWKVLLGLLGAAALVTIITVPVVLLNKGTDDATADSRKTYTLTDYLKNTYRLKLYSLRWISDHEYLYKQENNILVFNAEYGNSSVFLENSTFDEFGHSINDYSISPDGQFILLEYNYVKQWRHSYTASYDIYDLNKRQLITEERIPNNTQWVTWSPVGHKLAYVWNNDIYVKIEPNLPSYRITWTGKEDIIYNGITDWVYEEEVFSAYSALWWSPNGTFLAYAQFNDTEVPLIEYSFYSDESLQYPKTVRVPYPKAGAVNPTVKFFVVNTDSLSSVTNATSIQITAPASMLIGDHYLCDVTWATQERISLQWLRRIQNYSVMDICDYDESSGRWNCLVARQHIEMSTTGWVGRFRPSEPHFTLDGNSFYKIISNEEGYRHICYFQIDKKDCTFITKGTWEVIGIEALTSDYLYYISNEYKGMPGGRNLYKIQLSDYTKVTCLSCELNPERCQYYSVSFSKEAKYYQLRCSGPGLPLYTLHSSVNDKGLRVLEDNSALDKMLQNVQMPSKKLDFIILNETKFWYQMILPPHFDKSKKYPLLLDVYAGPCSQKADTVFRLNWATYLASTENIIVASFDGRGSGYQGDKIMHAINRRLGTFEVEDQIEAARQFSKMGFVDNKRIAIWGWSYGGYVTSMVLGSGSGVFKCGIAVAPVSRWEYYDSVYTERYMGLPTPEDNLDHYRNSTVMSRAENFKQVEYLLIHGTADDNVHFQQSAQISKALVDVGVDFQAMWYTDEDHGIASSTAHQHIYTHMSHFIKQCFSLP
# T3 sequence (Q86TI2 whole entry): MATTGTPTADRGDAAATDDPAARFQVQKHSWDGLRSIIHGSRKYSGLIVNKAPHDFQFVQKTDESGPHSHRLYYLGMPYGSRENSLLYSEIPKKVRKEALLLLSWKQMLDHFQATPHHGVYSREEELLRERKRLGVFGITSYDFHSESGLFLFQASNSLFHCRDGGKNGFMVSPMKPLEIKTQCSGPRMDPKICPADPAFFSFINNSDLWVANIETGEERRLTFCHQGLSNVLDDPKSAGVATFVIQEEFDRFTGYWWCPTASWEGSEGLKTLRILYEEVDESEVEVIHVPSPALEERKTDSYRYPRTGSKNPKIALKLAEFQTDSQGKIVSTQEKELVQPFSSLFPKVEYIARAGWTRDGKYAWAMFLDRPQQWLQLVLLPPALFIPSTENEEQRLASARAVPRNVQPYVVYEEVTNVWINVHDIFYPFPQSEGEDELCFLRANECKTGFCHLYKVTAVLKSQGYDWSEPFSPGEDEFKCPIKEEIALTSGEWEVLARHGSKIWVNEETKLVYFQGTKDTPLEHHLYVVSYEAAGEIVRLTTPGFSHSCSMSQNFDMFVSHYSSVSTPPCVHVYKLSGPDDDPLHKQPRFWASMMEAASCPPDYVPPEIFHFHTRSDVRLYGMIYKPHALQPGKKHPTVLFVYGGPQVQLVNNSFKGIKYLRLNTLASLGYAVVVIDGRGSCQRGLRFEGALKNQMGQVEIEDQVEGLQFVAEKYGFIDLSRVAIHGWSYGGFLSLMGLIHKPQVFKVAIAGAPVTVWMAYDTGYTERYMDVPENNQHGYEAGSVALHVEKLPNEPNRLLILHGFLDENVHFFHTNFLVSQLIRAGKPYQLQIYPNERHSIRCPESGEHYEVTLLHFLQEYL
Compound,IC50 (Recombinant human FAP [1]; [3]),IC50 (recombinant human DPP7),IC50 (DPP4; [4]),IC50 (Recombinant human FAP [2]),also measured
"N#C[C@@H]1CCCN1C(=O)CN1CCC(Nc2cccc3ncccc23)CC1 [Example 110, (S)-1-(2-(4-(quinolin-5-ylamino)piperidin-1-yl)acetyl)pyrrolidine-2-carbonitrile]",2.2 nM,500 nM,> 1000 nM,,
"N#C[C@@H]1C[C@H](F)CN1C(=O)CN1CC[C@@H](Nc2ccc3nc(Cl)ccc3c2)C1 [Example 207, (2S,4S)-4-fluoro-1-[2-[(3R)-3-[(2-chloro-6-quinolyl)amino]pyrrolidin-1-yl]acetyl]pyrrolidine-2-carbonitrile]",,,,17.9 nM,
"N#C[C@@H]1C[C@H](F)CN1C(=O)CN1CC[C@H](Nc2ccc3cccnc3c2)C1 [Example 251, (2S,4S)-4-fluoro-1-[2-[(3S)-3-(7-quinolylamino)pyrrolidin-1-yl]acetyl]pyrrolidine-2-carbonitrile]",,,,,IC50 (Recombinant human FAP [1]; [5]): 3.1 nM; IC50 (recombinant human DPP7; recombinant human DPP7): 199 nM; IC50 (DPP4; recombinant human DPP4): 2310 nM
"CN(c1cc2ccccc2cn1)C1CCN(CC(=O)N2CCC[C@H]2C#N)CC1 [Example 321, (2S)-1-[2-[4-[3-isoquinolyl(methyl)amino]-1-piperidyl]acetyl]pyrrolidine-2-carbonitrile]",,,,,IC50 (Recombinant human FAP [1]; [5]): 8.8 nM; IC50 (recombinant human DPP7; recombinant human DPP7): 10500 nM; IC50 (DPP4; recombinant human DPP4): > 10000 nM
"N#C[C@@H]1C[C@H](F)CN1C(=O)CN1CCC(Nc2cccc3nc[nH]c23)CC1 [Example 384, (2S,4S)-1-[2-[4-(3H-benzimidazol-4-ylamino)-1-piperidyl]acetyl]-4-fluoro-pyrrolidine-2-carbonitrile]",,,,74.9 nM,
"N#C[C@@H]1C[C@H](F)CN1C(=O)CN1CCC(Nc2cc(Cl)nc(N3CCOCC3)c2)CC1 [Example 385, (2S,4S)-1-[2-[4-[(2-chloro-6-morpholino-4-pyridyl)amino]-1-piperidyl]acetyl]-4-fluoro-pyrrolidine-2-carbonitrile]",,,,77.4 nM,
"N#C[C@@H]1C[C@H](F)CN1C(=O)CN1CCC(Nc2cccc3ncc(C(F)(F)F)cc23)CC1 [Example 386, (2S,4S)-4-fluoro-1-[2-[4-[[3-(trifluoromethyl)-5-quinolyl]amino]-1-piperidyl]acetyl]pyrrolidine-2-carbonitrile]",,,,19.8 nM,

# Second part, led by results:
IC50 (Recombinant human FAP [1]; [3]),IC50 (recombinant human DPP7),IC50 (DPP4; [4]),IC50 (Recombinant human FAP [2]),Compound,also measured
2.6 nM,294 nM,> 1000 nM,,"N#C[C@@H]1CCCN1C(=O)CN1CC[C@H](Nc2ccnc3ccccc23)C1 [Example 5, (S)-1-(2-((S)-3-(quinolin-4-ylamino)pyrrolidin-1-yl)acetyl)pyrrolidine-2-carbonitrile]",
3.08 nM,951 nM,> 1000 nM,,"N#C[C@@H]1CCCN1C(=O)CN1CC[C@H](Nc2cncc3ccoc23)C1 [Example 23, (S)-1-(2-((S)-3-(furo[3,2-c]pyridin-7-ylamino)pyrrolidin-1-yl)acetyl)pyrrolidine-2-carbonitrile]",
7.7 nM,2200 nM,,,"COc1ccc2occ(C(=O)N[C@H]3CCN(CC(=O)N4CCC[C@H]4C#N)C3)c2c1 [Example 46, N—((S)-1-(2-((S)-2-cyanopyrrolidin-1-yl)-2-oxoethyl)pyrrolidin-3-yl)-5-methoxybenzofuran-3-carboxamide]",inhibition at 1 µM (DPP4; read-out: hDPP4 inhibition % at 1 μM): 1.4%
21.5 nM,1150 nM,> 1000 nM,,"N#C[C@@H]1CCCN1C(=O)CN1CC[C@H](Oc2ccnc3ccccc23)C1 [Example 61, (S)-1-(2-((S)-3-(quinolin-4-yloxy)pyrrolidin-1-yl)acetyl)pyrrolidine-2-carbonitrile]",
5.48 nM,6390 nM,> 1000 nM,,"N#C[C@@H]1CCCN1C(=O)CN1CC[C@H](Oc2cccc3ncccc23)C1 [Example 66, (S)-1-(2-((S)-3-(quinolin-5-yloxy)pyrrolidin-1-yl)acetyl)pyrrolidine-2-carbonitrile]",
3.3 nM,4740 nM,> 1000 nM,,"N#C[C@@H]1CCCN1C(=O)CN1CC[C@H](Oc2ccnc3c(C(F)(F)F)cccc23)C1 [Example 95, (S)-1-(2-((S)-3-((8-(trifluoromethyl)quinolin-4-yl)oxy)pyrrolidin-1-yl)acetyl)pyrrolidine-2-carbonitrile]",DPP9 inhibition % at 1 μM (recombinant human DPP9): No inhibition**
0.78 nM,5900 nM,> 10000 nM,,"COc1ccc2nccc(OC3CCN(CC(=O)N4C[C@@H](F)C[C@H]4C#N)CC3)c2c1 [Example 128, (2S,4S)-4-fluoro-1-(2-(4-((6-methoxyquinolin-4-yl)oxy)piperidin-1-yl)acetyl)pyrrolidine-2-carbonitrile]",
3.4 nM,3120 nM,,,"COc1ccc2cc(N(C)[C@H]3CCN(CC(=O)N4CCC[C@H]4C#N)C3)cnc2c1 [Example 153, (S)-1-(2-((S)-3-((7-methoxyquinolin-3-yl)(methyl)amino)pyrrolidin-1-yl)acetyl)pyrrolidine-2-carbonitrile]",
,,,32.8 nM,"N#C[C@@H]1CCCN1C(=O)CN1CC[C@@H](Nc2ccc3nc(Cl)ccc3c2)C1 [Example 206, (2S)-1-[2-[(3R)-3-[(2-chloro-6-quinolyl)amino]pyrrolidin-1-yl]acetyl]pyrrolidine-2-carbonitrile]",
,,,32.4 nM,"N#C[C@@H]1CCCN1C(=O)CN1CCC(Nc2cccc3ncc(C(F)(F)F)cc23)CC1 [Example 387, (2S)-1-[2-[4-[[3-(trifluoromethyl)-5-quinolyl]amino]-1-piperidyl]acetyl]pyrrolidine-2-carbonitrile]",
